Consider 23 compounds from ChEMBL document CHEMBL1909046, “DrugMatrix in vitro pharmacology data”.

As a reminder, the IC50 is the concentration that inhibits the measured activity by half. As usually defined, the Ki is the dissociation constant of the complex between target and ligand, obtained from inhibition or displacement.

The nature of data set [1]: DRUGMATRIX: Serotonin (5-Hydroxytryptamine) 5-HT3 radioligand binding (ligand: [3H] GR-65630). The format is cell membranes, Membrane. As to conditions: hek293, Not Active = under 50% inhibition at 10 µM.
The target of data set [2] is Sigma non-opioid intracellular receptor 1 (Homo sapiens, UniProt Q99720). The data set is described as follows: DRUGMATRIX: Sigma1 radioligand binding (ligand: [3H] Haloperidol). The format is cell membranes, Jurkat, Membrane. As to conditions: jurkat; Not Active = under 50% inhibition at 10 µM.
Sequence of Sigma non-opioid intracellular receptor 1 (Q99720 whole entry): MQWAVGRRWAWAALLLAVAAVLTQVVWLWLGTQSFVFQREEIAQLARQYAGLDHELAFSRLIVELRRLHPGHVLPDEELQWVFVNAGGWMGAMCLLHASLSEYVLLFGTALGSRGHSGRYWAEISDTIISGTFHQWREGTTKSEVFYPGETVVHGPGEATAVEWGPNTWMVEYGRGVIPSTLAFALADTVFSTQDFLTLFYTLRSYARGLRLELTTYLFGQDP
Data set [3] concerns the target Vascular endothelial growth factor receptor 1 (Homo sapiens, UniProt P17948). The format is cell-based. As to conditions: huvec. Also: in other assays of this panel Not Active means under 50% inhibition at 10 µM.
In data set [4] the target is Mu-type opioid receptor (Homo sapiens, UniProt P35372). The data set is described as follows: DRUGMATRIX: Opiate mu (OP3, MOP) radioligand binding (ligand: [3H] Diprenorphine). The format is cell membranes, CHO-K1, Membrane. As to conditions: cho-k1; Not Active = under 50% inhibition at 10 µM.
Sequence of Mu-type opioid receptor (P35372 whole entry): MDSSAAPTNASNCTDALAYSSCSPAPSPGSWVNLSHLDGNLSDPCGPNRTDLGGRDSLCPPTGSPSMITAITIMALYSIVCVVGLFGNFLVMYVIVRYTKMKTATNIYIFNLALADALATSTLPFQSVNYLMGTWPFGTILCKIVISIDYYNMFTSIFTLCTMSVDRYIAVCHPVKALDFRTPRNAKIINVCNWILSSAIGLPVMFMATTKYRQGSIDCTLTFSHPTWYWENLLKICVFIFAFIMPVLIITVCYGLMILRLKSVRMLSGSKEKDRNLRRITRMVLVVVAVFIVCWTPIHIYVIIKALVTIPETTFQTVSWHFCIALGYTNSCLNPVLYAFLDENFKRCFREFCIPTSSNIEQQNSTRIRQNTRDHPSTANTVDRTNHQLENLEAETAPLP
The target of data set [5] is Epidermal growth factor receptor (Homo sapiens, UniProt P00533). The data set is described as follows: DRUGMATRIX: Protein Tyrosine Kinase, EGF Receptor enzyme inhibition (substrate: Poly(Glu:Tyr)). As to conditions: insect cells; Not Active = under 50% inhibition at 10 µM. The format is cell-based, Insect cells.
Sequence of Epidermal growth factor receptor (P00533 whole entry): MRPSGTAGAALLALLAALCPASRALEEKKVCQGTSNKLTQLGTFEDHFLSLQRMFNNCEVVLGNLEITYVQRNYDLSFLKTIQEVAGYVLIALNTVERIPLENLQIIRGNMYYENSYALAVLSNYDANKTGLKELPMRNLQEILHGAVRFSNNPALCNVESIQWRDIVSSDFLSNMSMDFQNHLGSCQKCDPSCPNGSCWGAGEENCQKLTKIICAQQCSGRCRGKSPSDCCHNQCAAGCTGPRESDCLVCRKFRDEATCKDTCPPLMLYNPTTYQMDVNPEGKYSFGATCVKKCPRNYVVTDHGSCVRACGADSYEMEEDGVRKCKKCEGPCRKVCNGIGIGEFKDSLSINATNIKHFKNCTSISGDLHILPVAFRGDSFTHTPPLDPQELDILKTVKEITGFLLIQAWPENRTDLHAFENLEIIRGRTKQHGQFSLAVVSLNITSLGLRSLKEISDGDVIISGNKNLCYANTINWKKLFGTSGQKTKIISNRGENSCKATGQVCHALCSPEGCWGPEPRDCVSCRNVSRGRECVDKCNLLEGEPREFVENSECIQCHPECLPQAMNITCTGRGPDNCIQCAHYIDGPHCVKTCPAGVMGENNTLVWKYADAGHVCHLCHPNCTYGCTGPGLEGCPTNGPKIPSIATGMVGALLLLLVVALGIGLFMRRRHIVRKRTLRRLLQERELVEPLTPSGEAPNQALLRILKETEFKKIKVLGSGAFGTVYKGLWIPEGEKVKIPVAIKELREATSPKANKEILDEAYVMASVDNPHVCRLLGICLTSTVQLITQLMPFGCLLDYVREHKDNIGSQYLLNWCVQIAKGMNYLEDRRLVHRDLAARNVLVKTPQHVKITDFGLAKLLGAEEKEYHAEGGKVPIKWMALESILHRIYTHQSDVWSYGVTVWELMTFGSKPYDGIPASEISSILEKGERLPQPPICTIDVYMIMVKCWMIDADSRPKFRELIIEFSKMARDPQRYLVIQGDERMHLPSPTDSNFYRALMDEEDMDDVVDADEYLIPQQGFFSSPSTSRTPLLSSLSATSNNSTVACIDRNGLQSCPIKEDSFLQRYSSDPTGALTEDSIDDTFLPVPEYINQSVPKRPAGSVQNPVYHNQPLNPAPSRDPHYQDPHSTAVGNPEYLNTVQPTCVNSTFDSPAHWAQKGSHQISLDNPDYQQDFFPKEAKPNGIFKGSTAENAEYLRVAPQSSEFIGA
The target of data set [6] is Cytochrome P450 3A4 (Homo sapiens, UniProt P08684). As to conditions: bti-tn-5b1-4. Also: in other assays of this panel Not Active means under 50% inhibition at 10 µM.
Sequence of Cytochrome P450 3A4 (P08684 whole entry): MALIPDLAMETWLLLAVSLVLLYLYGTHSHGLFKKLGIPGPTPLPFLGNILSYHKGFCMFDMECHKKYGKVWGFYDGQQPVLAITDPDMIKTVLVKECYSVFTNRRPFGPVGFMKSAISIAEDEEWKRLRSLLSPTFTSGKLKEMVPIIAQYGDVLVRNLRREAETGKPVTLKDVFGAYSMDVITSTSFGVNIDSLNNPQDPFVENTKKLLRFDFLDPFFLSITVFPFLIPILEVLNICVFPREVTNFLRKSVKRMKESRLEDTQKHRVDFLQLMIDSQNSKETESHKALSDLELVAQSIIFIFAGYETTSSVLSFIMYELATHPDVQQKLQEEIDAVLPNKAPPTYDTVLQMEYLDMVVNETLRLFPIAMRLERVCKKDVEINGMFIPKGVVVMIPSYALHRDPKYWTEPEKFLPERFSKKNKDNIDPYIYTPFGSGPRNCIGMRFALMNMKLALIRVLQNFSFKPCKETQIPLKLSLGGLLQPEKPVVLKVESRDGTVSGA

Sequence of Vascular endothelial growth factor receptor 1 (P17948 whole entry): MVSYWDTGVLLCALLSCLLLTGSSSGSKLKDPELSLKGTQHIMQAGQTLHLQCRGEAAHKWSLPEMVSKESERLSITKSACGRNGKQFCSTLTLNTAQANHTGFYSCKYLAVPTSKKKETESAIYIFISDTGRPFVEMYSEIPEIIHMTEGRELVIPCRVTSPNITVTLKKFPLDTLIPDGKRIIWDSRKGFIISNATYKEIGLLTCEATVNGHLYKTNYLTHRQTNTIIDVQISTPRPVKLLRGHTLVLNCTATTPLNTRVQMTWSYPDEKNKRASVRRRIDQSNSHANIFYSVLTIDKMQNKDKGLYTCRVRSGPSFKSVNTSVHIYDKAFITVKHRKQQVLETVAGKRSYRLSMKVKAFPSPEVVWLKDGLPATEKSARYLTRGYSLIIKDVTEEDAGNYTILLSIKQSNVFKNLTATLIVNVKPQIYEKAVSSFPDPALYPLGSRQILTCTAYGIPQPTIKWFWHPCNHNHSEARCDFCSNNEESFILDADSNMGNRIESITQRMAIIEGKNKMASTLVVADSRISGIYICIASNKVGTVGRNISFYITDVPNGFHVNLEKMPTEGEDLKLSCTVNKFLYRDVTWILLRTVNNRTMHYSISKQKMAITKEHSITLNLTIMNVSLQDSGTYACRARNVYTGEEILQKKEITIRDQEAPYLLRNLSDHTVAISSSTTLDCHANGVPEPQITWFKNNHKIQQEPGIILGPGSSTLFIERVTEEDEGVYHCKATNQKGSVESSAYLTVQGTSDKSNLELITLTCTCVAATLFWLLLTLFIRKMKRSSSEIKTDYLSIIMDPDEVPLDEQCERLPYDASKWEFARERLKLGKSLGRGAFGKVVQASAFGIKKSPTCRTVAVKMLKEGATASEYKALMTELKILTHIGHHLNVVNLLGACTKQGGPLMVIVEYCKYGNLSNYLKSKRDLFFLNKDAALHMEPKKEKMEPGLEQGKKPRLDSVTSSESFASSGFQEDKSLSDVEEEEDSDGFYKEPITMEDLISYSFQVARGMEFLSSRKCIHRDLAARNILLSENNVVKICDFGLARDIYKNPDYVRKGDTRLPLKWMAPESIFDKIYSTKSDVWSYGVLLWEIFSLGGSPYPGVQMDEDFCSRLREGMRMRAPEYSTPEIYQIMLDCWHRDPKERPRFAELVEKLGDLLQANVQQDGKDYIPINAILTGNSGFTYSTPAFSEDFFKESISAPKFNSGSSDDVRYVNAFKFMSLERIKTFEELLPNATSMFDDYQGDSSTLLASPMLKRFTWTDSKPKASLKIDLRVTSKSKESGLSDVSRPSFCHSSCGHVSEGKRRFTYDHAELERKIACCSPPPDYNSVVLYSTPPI

For `CC(=O)Nc1ccc(O)cc1` [ACETAMINOPHEN], the IC50 result in data set [1], in data set [2], in data set [3], in data set [4], in data set [5] and in data set [6] was “Not Active” each time. Besides, the Ki entry in data set [1] and in data set [6] was “Not Active” in each case.

As for `COc1cc2c(c3oc(=O)c4c(c13)CCC4=O)[C@@H]1C=CO[C@@H]1O2` [AFLATOXIN], the IC50 result in data set [1], in data set [2], in data set [3], in data set [4], in data set [5] and in data set [6] was “Not Active” each time. In addition, the Ki result in data set [1], in data set [2], in data set [3], in data set [4], in data set [5] and in data set [6] was “Not Active” in each case.

Consider `N=C(N)NC(=O)c1nc(Cl)c(N)nc1N` [AMILORIDE], for which the IC50 result in data set [1], in data set [2], in data set [3], in data set [4], in data set [5] and in data set [6] was “Not Active” throughout. Besides, the Ki entry in data set [1] and in data set [6] was “Not Active” throughout.

Turning to `Cc1cc(=O)n(-c2ccccc2)n1C` [ANTIPYRINE], the IC50 entry in data set [1], in data set [2], in data set [3], in data set [4], in data set [5] and in data set [6] was “Not Active” each time. Moreover, the Ki result in data set [1] and in data set [6] was “Not Active” each time.

In the case of `CN1C(=O)COc2c(C(=O)NC3CN4CCC3CC4)cc(Cl)cc21` (stereo not drawn) [AZASETRON], the IC50 in data set [1] (read-out: IC50) was 13 nM; in data set [2], “Not Active”; in data set [3], “Not Active”; in data set [4] it was “Not Active”; in data set [5], “Not Active”; in data set [6], “Not Active”. For the same compound, the Ki was 2.89 nM in data set [1] (read-out: Ki) and “Not Active” in data set [6].

In the case of `C[C@H]1C[C@H]2[C@@H]3CCC4=CC(=O)C=C[C@]4(C)[C@@]3(Cl)[C@@H](O)C[C@]2(C)[C@@]1(O)C(=O)CO` [BECLOMETHASONE], the IC50 result in data set [1], in data set [2], in data set [3], in data set [4], in data set [5] and in data set [6] was “Not Active” throughout. Moreover, the Ki result in data set [1] and in data set [6] was “Not Active” in each case.

For the compound `CCOC(=O)[C@H](CCc1ccccc1)N[C@H]1CCc2ccccc2N(CC(=O)O)C1=O` [BENAZEPRIL], the IC50 result in data set [1], in data set [2], in data set [3], in data set [4], in data set [5] and in data set [6] was “Not Active” each time. Besides, the inhibition constant (Ki) result in data set [1] and in data set [6] was “Not Active” in each case.

`Nc1c(CC(=O)O)cccc1C(=O)c1ccc(Br)cc1` [BROMFENAC]: the half-maximal inhibitory concentration (IC50) result in data set [1], in data set [2], in data set [3], in data set [4], in data set [5] and in data set [6] was “Not Active” throughout. In addition, the Ki entry in data set [1] and in data set [6] was “Not Active” throughout.

`CCCCN1CCCCC1C(=O)Nc1c(C)cccc1C.Cl` (stereo not drawn) [BUPIVACAINE HYDROCHLORIDE]: the IC50 result in data set [1], in data set [2], in data set [3], in data set [4], in data set [5] and in data set [6] was “Not Active” in each case. Further, the Ki entry in data set [1] and in data set [6] was “Not Active” each time.

With `ClC(Cl)Cl` [CHLOROFORM], the 50% inhibitory concentration (IC50) result in data set [1], in data set [2], in data set [3], in data set [4], in data set [5] and in data set [6] was “Not Active” in each case. In addition, the Ki entry in data set [1] and in data set [6] was “Not Active” in each case.

`C=C1CC[C@H](O)C/C1=C/C=C1\CCC[C@]2(C)[C@@H]([C@H](C)CCCC(C)C)CC[C@@H]12` [CHOLECALCIFEROL]: the IC50 entry in data set [1], in data set [2], in data set [3], in data set [4], in data set [5] and in data set [6] was “Not Active” throughout. For the same compound, the Ki result in data set [1] and in data set [6] was “Not Active” in each case.

With `C[N+](C)(C)CCO.[Cl-]` [CHOLINE CHLORIDE], the IC50 result in data set [1], in data set [2], in data set [3], in data set [4], in data set [5] and in data set [6] was “Not Active” in each case. In addition, the Ki entry in data set [1] and in data set [6] was “Not Active” throughout.

For `CC(=O)OCC(=O)[C@@]1(O)CC[C@H]2[C@@H]3CCC4=CC(=O)CC[C@]4(C)[C@H]3C(=O)C[C@@]21C` [CORTISONE ACETATE], the IC50 result in data set [1], in data set [2], in data set [3], in data set [4], in data set [5] and in data set [6] was “Not Active” throughout. Further, the Ki result in data set [1] and in data set [6] was “Not Active” throughout.

Consider `O=c1ccc2ccccc2o1` [COUMARIN], for which the IC50 entry in data set [1], in data set [2], in data set [3], in data set [4], in data set [5] and in data set [6] was “Not Active” each time. In addition, the Ki entry in data set [1] and in data set [6] was “Not Active” throughout.

On to `CN(C)/N=N/c1[nH]cnc1C(N)=O` [DACARBAZINE], for which the IC50 result in data set [1], in data set [2], in data set [3], in data set [4], in data set [5] and in data set [6] was “Not Active” each time. The Ki entry in data set [1] and in data set [6] was “Not Active” each time.

Take `COc1ccc2c(c1)[C@]13CCCC[C@@H]1[C@H](C2)N(C)CC3` [DEXTROMETHORPHAN]: the IC50 entry in data set [1], in data set [2], in data set [3], in data set [4], in data set [5] and in data set [6] was “Not Active” each time. Moreover, the Ki result in data set [1] and in data set [6] was “Not Active” each time.

As to `CC(=O)Nc1c(I)c(NC(C)=O)c(I)c(C(=O)O)c1I` [DIATRIZOIC ACID], the IC50 result in data set [1], in data set [2], in data set [3], in data set [4], in data set [5] and in data set [6] was “Not Active” each time. For the same compound, the Ki result in data set [1] and in data set [6] was “Not Active” each time.

Regarding `O=C(O)Cc1ccccc1Nc1c(Cl)cccc1Cl` [DICLOFENAC], the IC50 result in data set [1], in data set [2], in data set [3], in data set [4], in data set [5] and in data set [6] was “Not Active” throughout. Further, the Ki entry in data set [1] and in data set [6] was “Not Active” throughout.

With `C[C@H]1O[C@@H](O[C@H]2[C@@H](O)C[C@H](O[C@H]3[C@@H](O)C[C@H](O[C@H]4CC[C@@]5(C)[C@H](CC[C@@H]6[C@@H]5CC[C@]5(C)[C@@H](C7=CC(=O)OC7)CC[C@]65O)C4)O[C@@H]3C)O[C@@H]2C)C[C@H](O)[C@@H]1O` [DIGITOXIN], the IC50 result in data set [1], in data set [2], in data set [3], in data set [4], in data set [5] and in data set [6] was “Not Active” each time. The inhibitory constant (Ki) result in data set [1] and in data set [6] was “Not Active” each time.

For the compound `CCN1CC(CCN2CCOCC2)C(c2ccccc2)(c2ccccc2)C1=O` (stereo not drawn) [DOXAPRAM], the IC50 entry in data set [1], in data set [2], in data set [3], in data set [4], in data set [5] and in data set [6] was “Not Active” throughout. Also, the Ki entry in data set [1] and in data set [6] was “Not Active” in each case.

As to `Cn1c(=O)c2c(ncn2CC2OCCO2)n(C)c1=O` [DOXOFYLLINE], the IC50 entry in data set [1], in data set [2], in data set [3], in data set [4], in data set [5] and in data set [6] was “Not Active” in each case. The inhibitory constant (Ki) result in data set [1] and in data set [6] was “Not Active” in each case.

Regarding `COc1cccc2c1C(=O)c1c(O)c3c(c(O)c1C2=O)C[C@@](O)(C(=O)CO)C[C@@H]3O[C@H]1C[C@H](N)[C@H](O)[C@H](C)O1` [DOXORUBICIN], the IC50 entry in data set [1], in data set [2], in data set [3], in data set [4], in data set [5] and in data set [6] was “Not Active” throughout. For the same compound, the Ki entry in data set [1] and in data set [6] was “Not Active” in each case.

With `COc1cccc2c1C(=O)c1c(O)c3c(c(O)c1C2=O)C[C@@](O)(C(=O)CO)C[C@@H]3O[C@H]1C[C@H](N)[C@@H](O)[C@H](C)O1` [EPIRUBICIN], the IC50 result in data set [1], in data set [2], in data set [3], in data set [4], in data set [5] and in data set [6] was “Not Active” in each case. Moreover, the Ki entry in data set [1] and in data set [6] was “Not Active” in each case.
